Like-named read-outs stand apart in the source and are kept apart here.
How the values were obtained:
[1] = Solubility of the polyvalent molecules in ethanol, iso-propanol and tri-caprylin
Method: The solubility can be checked by stirring about 20 mg of the polyvalent molecule in 1 gram of tricaprylin, ethanol or iso-propanol, and assessing whether all material spontaneously dissolves to create a clear/transparent solution (with a concentration of about 2 w/w %). The test can be done at about 20 degrees centigrade (room temperature) or at about 37 degrees centigrade.
Spontaneous dissolution upon stirring at room temperature giving a clear solution is a mark for solubility.

[2] = Dynamic light scattering (DLS) of nanoparticles; assay type: physicochemical; conditions: siRNA-aNPs containing the polyvalent material (Table S3); SD over individual repeats
Method: The hydrodynamic diameter of the formulated particles was determined by a number-weighted mean diameter provided by dynamic light scattering (DLS) using a Zetasizer Nano ZS in combination with a Malvern Zetasizer NanoSampler (Malvern Instruments, Worcestshire, UK). The size dispersity was measured as the poly dispersity index (PDI). For the DLS measurements, 100 μl of the formulated nanoparticle was diluted into 700 μl of PBS (137 mM NaCl, 2.7 mM KCl, 10 mM Na2HPO4 and 1.8 mM KH2PO4) and equilibrated at room temperature before the analysis. Each sample was measured 5 times, 10 runs of each 10 seconds, at wavelength 633 nm, without fixing the attenuator and measurement position.

[3] = Stability of nanoparticle formulations (phase separation on dialysis or storage); assay type: physicochemical; parameters: key to phase separation of siRNA-aNPs (Table S4): *: Indicates phase separation after two days of storage in the refrigerator at 4° C; key to phase separation of siRNA-aNPs (footnote mark, Table S5): *: Indicates phase separation after two days storage in the fridge at 4° C.; **: Indicates phase separation after overnight dialysis; conditions: siRNA-aNPs containing the polyvalent material; for phase separation of siRNA-aNPs (footnote mark, Table S5): overnight dialysis or storage at 4° C; for phase separation of siRNA-aNPs (Table S4): storage in the refrigerator at 4° C
[4] = Cryo-TEM of nanoparticles; assay type: physicochemical
Method: Size and shape of the nanoparticles was also assessed by cryo-transmission electron microscopy (cryo-TEM). The surface of 200-mesh lacey carbon supported copper grids (Electron Microscopy Sciences) was plasma charged for 40 seconds using a carbon coater (Cressington 208). Subsequently, 3 μl of nanoparticle sample (˜1 mg protein/ml) was pipetted on a grid and vitrified into a thin film by plunge vitrification in liquid ethane. This step was performed by using an automated robot (FEI Vitrobot Mark IV). Cryo-TEM imaging was acquired on the cryo-transmission electron microscope TITAN (Thermo Fisher), equipped with a field emission gun (FEG), a post-column Gatan imaging filter (model 2002) and a post-GIF 2 k×2 k Gatan CCD camera (model 794). The imaging was performed at 300 kV acceleration voltage in bright-field TEM mode with zero-loss energy filtering at 24,000× magnification (dose rate of 11.8 e−/Å2·s), and 1s acquisition time. Pictures and results are reported in Table S6, FIG. 7, FIG. 8, FIG. 9 (A), FIG. 15.

RAW 264.7 cell line = assay: MTS cytotoxicity assay; assay type: cell-based; conditions: RAW 264.7 cell line exposed to siRNA-aNPs with increasing amounts of the polyvalent molecule (FIG. 10)
Method: MTS assays were carried out on multiple apolipoprotein nanoparticles (aNPs) of the invention. These assays were executed in line with protocols that are known in the art.

[5] = 20 mg material per gram of solvent, spontaneous dissolution upon stirring giving a clear solution

Row | Compound | solubility in ethanol, iso-propanol and tri-caprylin [1, 5] | DLS Hydrodynamic diameter (number mean) [2] [nm] | DLS PDI [2] | further results
1 | CCCCCCCCC=CCCCCCCCC(=O)NCCCCC(N)C(=O)NCCCN(CCCCN(CCCNC(=O)C(N)CCCCNC(=O)CCCCCCCC=CCCCCCCCC)CCCNC(=O)C(N)CCCCNC(=O)CCCCCCCC=CCCCCCCCC)CCCNC(=O)C(N)CCCCNC(=O)CCCCCCCC=CCCCCCCCC (centres unmarked) [Example J10, G1-Lysine-N^6-Oleate-4] | soluble in all three solvents at room temperature |  |  | 
2 | CCCCCCCCC(O)CN(CCN(CC(O)CCCCCCCC)CC(O)CCCCCCCC)CCN(CC(O)CCCCCCCC)CC(O)CCCCCCCC (mixture of isomers) [Example G8, Bis(2-amino-ethyl)amine-EPX-C8-5] | soluble in all three solvents at room temperature | 84 ± 45 | 0.2 ± 0.05 | 
3 | CCCCCCCCCCCCCCOC(=O)CCN(CCCN(CCCCN(CCCN(CCC(=O)OCCCCCCCCCCCCCC)CCC(=O)OCCCCCCCCCCCCCC)CCCN(CCC(=O)OCCCCCCCCCCCCCC)CCC(=O)OCCCCCCCCCCCCCC)CCCN(CCC(=O)OCCCCCCCCCCCCCC)CCC(=O)OCCCCCCCCCCCCCC)CCC(=O)OCCCCCCCCCCCCCC [Example A3, G1-ACR-nC14-8] |  | 55 ± 0.7 | 0.14 ± 0.01 | 
4 | CCCCCCCCCCCCCCOC(=O)CCN(CCCN(CCCCN(CCCN(CCC(=O)OCCCCCCCCCCCCCC)C(C)=O)CCCN(CCC(=O)OCCCCCCCCCCCCCC)C(C)=O)CCCN(CCC(=O)OCCCCCCCCCCCCCC)C(C)=O)C(C)=O [Example B2, G1-ACR-nC14-4/Ac-4] | soluble in all three solvents at room temperature | 67 | 0.09 | phase separation of siRNA-aNPs (footnote mark, Table S5) [3]: B2 *; phase separation of siRNA-aNPs (Table S4) [3]: B2 *
5 | CCCCCCCCCCCCCCOC(=O)CCN(C)CCCN(CCCCN(CCCN(C)CCC(=O)OCCCCCCCCCCCCCC)CCCN(C)CCC(=O)OCCCCCCCCCCCCCC)CCCN(C)CCC(=O)OCCCCCCCCCCCCCC [Example H1, G1-ACR-nC14-4/CH3-4] |  | 66 ± 7 | 0.45 ± 0.43 | phase separation of siRNA-aNPs (footnote mark, Table S5) [3]: H1 *; phase separation of siRNA-aNPs (Table S4) [3]: H1 *
6 | CCCCCCCCOC(=O)CCN(CCC(=O)OCCCCCCCC)CCN(CCC(=O)OCCCCCCCC)CCN(CCC(=O)OCCCCCCCC)CCC(=O)OCCCCCCCC [Example A10, Bis(2-aminoethyl)amine-ACR-C8-5] |  |  |  | solubility in ethanol, iso-propanol and tri-caprylin [1]: soluble in all three solvents at room temperature
7 | CCCCCCCCOC(=O)CCN(CCCN(CCC(=O)OCCCCCCCC)CCC(=O)OCCCCCCCC)CCCN(CCC(=O)OCCCCCCCC)CCC(=O)OCCCCCCCC [Example A9, Bis(3-Aminopropyl)Amine-ACR-C8-5] | soluble in all three solvents at room temperature |  |  | 
8 | CCCCCCCCOC(=O)CCN(CCCN(C)CCCN(CCC(=O)OCCCCCCCC)CCC(=O)OCCCCCCCC)CCC(=O)OCCCCCCCC [Example A11, Bis-(3-aminopropyl)methylamine-ACR-C8-4] | soluble in all three solvents at room temperature | 136 ± 45 | 0.14 ± 0.04 | 
9 | CCCCCCCCC(O)CN(CCCN(CC(O)CCCCCCCC)CC(O)CCCCCCCC)CCCN(CC(O)CCCCCCCC)CC(O)CCCCCCCC (mixture of isomers) [Example G7, Bis(3-aminopropyl)amine-EPX-C8-5] | soluble in all three solvents at room temperature | 54 ± 1 | 0.2 ± 0.06 | 
10 | CCCCCCCCCCC(O)CN(CCCN(CCCCN(CCCN(CC(O)CCCCCCCCCC)CC(O)CCCCCCCCCC)CCCN(CC(O)CCCCCCCCCC)CC(O)CCCCCCCCCC)CCCN(CC(O)CCCCCCCCCC)CC(O)CCCCCCCCCC)CC(O)CCCCCCCCCC (mixture of isomers) [Example G2, G1-EPX-nC10-8] | soluble in all three solvents at room temperature | 55 ± 4 | 0.10 ± 0.01 | 
11 | CCCCCCCCC=CCCCCCCCC(=O)NC(CCCNC(=N)N)C(=O)NCCCN(CCCCN(CCCNC(=O)C(CCCNC(=N)N)NC(=O)CCCCCCCC=CCCCCCCCC)CCCNC(=O)C(CCCNC(=N)N)NC(=O)CCCCCCCC=CCCCCCCCC)CCCNC(=O)C(CCCNC(=N)N)NC(=O)CCCCCCCC=CCCCCCCCC (centres unmarked) [Example J11, G1-Arginine-Oleate-4] | soluble in all three solvents at room temperature |  |  | 
12 | CC(C)CCCCCCCOC(=O)CCN(CCCN(CCCCN(CCCN(CCC(=O)OCCCCCCCC(C)C)CCC(=O)OCCCCCCCC(C)C)CCCN(CCC(=O)OCCCCCCCC(C)C)CCC(=O)OCCCCCCCC(C)C)CCCN(CCC(=O)OCCCCCCCC(C)C)CCC(=O)OCCCCCCCC(C)C)CCC(=O)OCCCCCCCC(C)C [Example A6, G1-ACR-isoC10-8] |  | 48 ± 1 | 0.14 ± 0.02 | diameter of siRNA-aNPs visible in cryo-TEM and immuno-gold staining TEM images ([4]; siRNA-aNPs containing A6 (FIG. 9)): about 50 nm; Cryo-TEM Diameter ([4]; siRNA-aNPs containing the polyvalent material, SD over n individual particles): 53 ± 11 nm; Cryo-TEM PDI ([4]; siRNA-aNPs containing the polyvalent material, n individual particles): 0.02; cytotoxicity (MTS assay) (RAW 264.7 cell line): do not exercise cytotoxicity
13 | CCCCCCCCC(O)CN(CCCN(C)CCCN(CC(O)CCCCCCCC)CC(O)CCCCCCCC)CC(O)CCCCCCCC (mixture of isomers) [Example G9, Bis(3-aminopropyl)methylamine-EPX-C8-4] |  | 73 ± 10 | 0.18 ± 0.08 | 
